Test results taken from patent publication US10604521B2, “Crystalline forms of PLX3397 hydrochloride, processes for preparation and use thereof” (Crystal Pharmaceutical (Suzhou) Co., Ltd., priority 2016, dated 2020).
Structures can show the parent of a compound that is named as a salt.

Key:
[1] = stored at 80° C. for 7 days; cited from earlier work
[2] = Stability assessment of Form CS3 stored at 25° C./60% RH; format: physicochemical
Method: Form CS3 of the present disclosure was stored at 25° C./60% RH for 90 days. Samples were taken after 15, 30 and 90 days to investigate the stability of From CS3. […] XRPD patterns overlay before and after storage for 90 days was substantially as depicted in FIG. 15.

[3] = Hygroscopicity test by dynamic vapor sorption (DVS), XRPD before and after; format: physicochemical; settings: 40%-95%-0-95% RH cycle at 25° C.
Method: Dynamic Vapor Sorption (DVS) is measured via a SMS (Surface Measurement Systems Ltd.) intrinsic DVS. Typical Parameters for DVS test are as follows: Temperature: 25° C. Gas and flow rate: N2, 200 mL/min dm/dt: 0.002%/min RH range: 0% RH to 95% RH 6.2 mg of monohydrochloride Form CS2 was placed into dynamic vapor sorption (DVS) instrument, and then went through a 40%-95%-0-95% RH cycle at 25° C. The DVS plot was substantially as depicted in FIG. 10. The XRPD patterns overlay of solids before and after DVS test was substantially as depicted in FIG. 11 (Top: XRPD pattern before DVS; Bottom: XRPD pattern after DVS). […] 7.9 mg of dihydrochloride Form CS3 was placed into dynamic vapor sorption (DVS) instrument, and then went through a 40%-95%-0-95% RH cycle at 25° C. The DVS plot was substantially as depicted in FIG. 12. The XRPD patterns overlay of solids before and after DVS test was substantially as depicted in FIG. 13 (Top: XRPD pattern before DVS; Bottom: XRPD pattern after DVS).

[4] = Particle size distribution (PSD), laser particle size analyzer, wet process; format: physicochemical; settings: volume distribution, dispersion medium Isopar G
Method: The particle size distribution test in the present disclosure is acquired by the S3500 laser particle size analyzer of Microtrac. Microtrac S3500 is equipped with the SDC (Sample Delivery Controller). The test is carried out by wet process, and the dispersion medium is Isopar G The parameters are as follow: [table] Mv: Average particle size calculated by volume. D10: particle size which accounts for 10% of the particle size distribution (volume distribution). D50: particle size which accounts for 50% of the particle size distribution (volume distribution), also known as the median particle size. D90: particle size which accounts for 90% of the particle size distribution (volume distribution). PSD was performed on Form CS3 of the present disclosure and Form C of WO2016179415.

[5] = Mechanical stability: grinding in agate mortar, XRPD; format: physicochemical; settings: grinding for 5 minutes in agate mortar
Method: A certain amount of Form C of WO2016179415, Form CS2 and Form CS3 samples were placed in an agate mortar. After grinding for 5 minutes, the obtained solid was collected for XRPD characterization. The results of Form C of WO2016179415, Form CS2 and Form CS3 were substantially as depicted in FIG. 16, FIG. 17 and FIG. 18, respectively.

[6] = Dynamic solubility (saturated solutions, HPLC); format: physicochemical; settings: monohydrochloride
Method: High Performance Liquid Chromatography (HPLC) data in the present disclosure are collected from Agilent 1100 with diode array detector (DAD). The HPLC method parameters for solubility test in the present disclosure are as follows:
4. Injection Volume: 4 μL
5. Detection wavelength: 230 nm
6. Column Temperature: 40° C.
7. Diluent: 50% Acetonitrile
Form CS2 of the present disclosure and Form C of WO2016179415 were suspended into SGF (Simulated gastric fluids) and water to get saturated solutions. After equilibrated for 1 h and 4 h, concentrations of the saturated solutions were measured by HPLC.

[7] = Stability assessment of Form CS2 stored at 5° C. (XRPD and HPLC); format: physicochemical; settings: for Purity: HPLC; for Solid Form: XRPD
Method: Form CS2 of the present disclosure was stored at 5° C. Samples were taken after 15 and 30 days to test XRPD and HPLC. The stability of From CS2 was mainly investigated. […] XRPD patterns overlay before and after storage for 30 days was substantially as depicted in FIG. 14.

## FC(F)(F)c1ccc(CNc2ccc(Cc3c[nH]c4ncc(Cl)cc34)cn2)cn1 [Form A, PLX3397 monohydrochloride]
[1]
  Form change on storage: converted to Form C

## FC(F)(F)c1ccc(CNc2ccc(Cc3c[nH]c4ncc(Cl)cc34)cn2)cn1 [Form CS3, PLX3397 dihydrochloride]
[2]; 15 days
  Purity: 99.60%
  Solid Form: No form change
[2]; 30 days
  Purity: 99.64%
  Solid Form: No form change
[2]; 90 days
  Purity: 99.50%
  Solid Form: No form change
[2]; Initial
  Purity: 99.51%
  Solid Form: No form change
[3]
  Form change after DVS test: No form change
[4]; dihydrochloride
  D(10): 6.55 μm
  D(50): 47.85 μm
  D(90): 194.3 μm
[5]; dihydrochloride
  Crystalline form after grinding: crystallinity of Form CS2 and Form CS3 decreased but the crystalline forms remained unchanged

## FC(F)(F)c1ccc(CNc2ccc(Cc3c[nH]c4ncc(Cl)cc34)cn2)cn1 [Form CS2, PLX3397 monohydrochloride]
[6]; H2O, 1 h
  Solubility: 2170 µg/mL
[6]; H2O, 4 h
  Solubility: 1290 µg/mL
[6]; SGF, 1 h
  Solubility: 1130 µg/mL
[6]; SGF, 4 h
  Solubility: 1280 µg/mL
[7]; 15 days
  Purity: 99.45%
  Solid Form: No form change
[7]; 30 days
  Purity: 99.44%
  Solid Form: No form change
[7]; Initial
  Purity: 99.53%
  Solid Form: No form change
[3]
  Form change after DVS test: No form change
[5]; monohydrochloride
  Crystalline form after grinding: crystallinity of Form CS2 and Form CS3 decreased but the crystalline forms remained unchanged

## FC(F)(F)c1ccc(CNc2ccc(Cc3c[nH]c4ncc(Cl)cc34)cn2)cn1 [Form C, PLX3397 monohydrochloride, reference compound]
[6]; H2O, 1 h
  Solubility: 80 µg/mL
[6]; H2O, 4 h
  Solubility: 600 µg/mL
[6]; SGF, 1 h
  Solubility: 490 µg/mL
[6]; SGF, 4 h
  Solubility: 560 µg/mL
[4]; monohydrochloride
  D(10): 2.35 μm
  D(50): 18.26 μm
  D(90): 118.8 μm
[5]; listed as Form C of WO2016179415, monohydrochloride
  Crystalline form after grinding: substantially changed to amorphous
